Measured values published in paper PMC6199744, “Development of Chemical Proteomics for the Folateome and Analysis of the Kinetoplastid Folateome” (ACS Infectious Diseases, 2018).

System: L. major lysate proteins
Experiment: Multitargeted bead mixture chemoproteomics, single concentration competition, proteome-wide
Type: binding

**Q.** Which fold change (protein LMJF.35.0420 40S RIBOSOMAL PROTEIN S3A, PUTATIVE, vehicle control = 1) does the source give for `NCCOCCOCC(=O)Nc1nc2ncc(CNc3ccc(C(=O)NC(CCC(=O)O)C(=O)O)cc3)nc2c(=O)[nH]1` (stereo not shown) [compound 6] here?
**A.** The fold change was 1.15.

**Q.** What about the “fold change relative to vehicle control” value (protein LMJF.35.1220, SHORT CHAIN DEHYDROGENASE, PUTATIVE) of the same compound?
**A.** The value was 1.09.

**Q.** What about the “fold change relative to vehicle control” value (protein LMJF.35.1380, MIT[…], BETA SUBUNIT, PUTATIVE) of the same compound?
**A.** The value was 1.08.

**Q.** And the “fold change vs vehicle control” value (protein LMJF.35.1830 HYPOTHETICAL PROTEIN, CONSERVED)?
**A.** The value was 0.93.

**Q.** What about the “fold change vs vehicle control” value (protein LMJF.35.3340 6-phosphogluconate dehydrogenase) of the same compound?
**A.** Its value is 0.99.

**Q.** What about the fold change (protein LMJF.35.3700 GIM5A PROTEIN, PUTATIVE,GLYCOSOMAL MEMBRANE PROTEIN, vehicle control = 1) of the same compound?
**A.** The fold change was 0.99.

**Q.** And the “fold change vs vehicle control” value (protein LMJF.35.3760 60S RIBOSOMAL PROTEIN L27A/L29, PUTATIVE)?
**A.** The value was 0.97.

**Q.** What about the “fold change relative to vehicle control” value (protein LMJF.35.3840, […] 2 SUBUNIT, PUTATIVE) of the same compound?
**A.** Its value is 1.14.

**Q.** What about the “fold change vs vehicle control” value (protein LMJF.35.3860 T-COMPLEX PROTEIN 1, ETA SUBUNIT, PUTATIVE) of the same compound?
**A.** The value was 1.

**Q.** And the fold change (protein LMJF.35.4420 MIT[…] TRANSPORTER, PUTATIVE, vehicle control = 1)?
**A.** The fold change was 1.05.

**Q.** And the “fold change relative to vehicle control” value (protein LMJF.35.4880, HY[…], CONSERVED (TPR repeat, putative))?
**A.** The value was 1.34.

**Q.** And the “fold change relative to vehicle control” value (protein LMJF.35.5330, ISOPENTENYL-D[…]-ISOMERASE, PUTATIVE)?
**A.** Its value is 1.14.

**Q.** What about the “fold change relative to vehicle control” value (protein LMJF.36.0070, STRESS-INDUCIBLE PROTEIN STI1 HOMOLOG) of the same compound?
**A.** The value was 1.56.

**Q.** What about the fold change (protein LMJF.36.0480 HYPOTHETICAL PROTEIN, CONSERVED, vehicle control = 1) of the same compound?
**A.** The fold change was 0.98.

**Q.** And the “fold change vs vehicle control” value (protein LMJF.36.0620 HYPOTHETICAL PROTEIN, CONSERVED)?
**A.** The value was 0.81.

**Q.** What about the “fold change vs vehicle control” value (protein LMJF.36.0930 40S RIBOSOMAL PROTEIN S18, PUTATIVE) of the same compound?
**A.** The value was 1.15.

**Q.** And the “fold change vs vehicle control” value (protein LMJF.36.0990 40S RIBOSOMAL PROTEIN S10, PUTATIVE)?
**A.** The value was 0.99.

**Q.** What about the fold change (protein LMJF.36.1140 SHORT CHAIN 3-HYDROXYACYL-COA DEHYDROGENASE, PUTATIVE, vehicle control = 1) of the same compound?
**A.** The fold change was 0.82.

**Q.** What about the “fold change relative to vehicle control” value (protein LMJF.36.1260, FRUCTOSE-1,6-BI[…]) of the same compound?
**A.** Its value is 1.05.

**Q.** What about the fold change (protein LMJF.36.1340 N-ACETYLTRANSFERASE SUBUNIT NAT1, PUTATIVE, vehicle control = 1) of the same compound?
**A.** The fold change was 0.91.

**Q.** What about the “fold change vs vehicle control” value (protein LMJF.36.1650 […] 5 SUBUNIT, PUTATIVE) of the same compound?
**A.** Its value is 1.03.

**Q.** And the “fold change relative to vehicle control” value (protein LMJF.36.2380, STEROL 24-C-METHYLTRANSFERASE, PUTATIVE)?
**A.** The value was 1.

**Q.** What about the “fold change relative to vehicle control” value (protein LMJF.36.2660, DIHYDROLIPOAMIDE ACETYLTRANSFERASE PRECURSOR, PUTATIVE) of the same compound?
**A.** The value was 1.

**Q.** What about the “fold change vs vehicle control” value (protein LMJF.36.2950 SUCCINYL-COA LIGASE GDP-FORMING] BETA-CHAIN, PUTATIVE) of the same compound?
**A.** Its value is 1.06.

**Q.** And the “fold change vs vehicle control” value (protein LMJF.36.3210 14-3-3 PROTEIN-LIKE PROTEIN)?
**A.** Its value is 0.97.

**Q.** What about the “fold change vs vehicle control” value (protein LMJF.36.3410 SHORT CHAIN DEHYDROGENASE-LIKE PROTEIN) of the same compound?
**A.** The value was 1.22.

**Q.** And the fold change (protein LMJF.36.3460 HYPOTHETICAL PROTEIN, CONSERVED (NIPSNAP, putative), vehicle control = 1)?
**A.** The fold change was 1.1.

**Q.** What about the fold change (protein LMJF.36.3580 HYPOTHETICAL PROTEIN, CONSERVED (Protein of unknown function (DUF2009), putative), vehicle control = 1) of the same compound?
**A.** The fold change was 0.92.

**Q.** What about the fold change (protein LMJF.36.3750 40S RIBOSOMAL PROTEIN S27-1, PUTATIVE, vehicle control = 1) of the same compound?
**A.** The fold change was 0.73.

**Q.** What about the “fold change vs vehicle control” value (protein LMJF.36.5010 40S RIBOSOMAL PROTEIN SA, PUTATIVE) of the same compound?
**A.** The value was 1.07.

**Q.** And the “fold change vs vehicle control” value (protein LMJF.36.5130 HY[…], CONSERVED)?
**A.** Its value is 1.09.

**Q.** What about the “fold change vs vehicle control” value (protein LMJF.36.5150 HY[…], CONSERVED) of the same compound?
**A.** Its value is 1.01.

**Q.** What about the “fold change relative to vehicle control” value (protein LMJF.36.5380, NADH DEHYDROGENASE, PUTATIVE) of the same compound?
**A.** Its value is 0.94.

**Q.** What about the “fold change vs vehicle control” value (protein LMJF.36.5390 PHOSPHORIBOSYLPYROPHOSPHATE SYNTHETASE, PUTATIVE) of the same compound?
**A.** Its value is 0.99.

**Q.** And the “fold change vs vehicle control” value (protein LMJF.36.5620 ISOLEUCYL-TRNA SYNTHETASE, PUTATIVE)?
**A.** The value was 1.03.

**Q.** And the fold change (protein LMJF.36.6430 PROTEIN TRANSPORT PROTEIN SEC23-LIKE PROTEIN, vehicle control = 1)?
**A.** Its fold change is 0.83.

**Q.** What about the “fold change vs vehicle control” value (protein LMJF.36.6760 HY[…], CONSERVED) of the same compound?
**A.** The value was 1.01.

**Q.** And the “fold change relative to vehicle control” value (protein LMJF.[…], MIT[…] BETA SUBUNIT, PUTATIVE)?
**A.** Its value is 0.95.

**Q.** And the “fold change relative to vehicle control” value (protein LMJF.[…], POLY(A) EXPORT PROTEIN, PUTATIVE)?
**A.** Its value is 1.14.

**Q.** What about the fold change (vs vehicle control, protein LINJ.20.0630 CYTIDINE TR[…], PUTATIVE,CTP SYNTHASE, PUTATIVE) of the same compound?
**A.** Its fold change is 1.07.

**Q.** And the fold change (vs vehicle control, protein LINJ.20.1390 COATOMER BETA SUBUNIT, PUTATIVE)?
**A.** Its fold change is 0.82.

**Q.** What about the fold change (vs vehicle control, protein LMJF.05.1140 VACUOLAR ATPASE SUBUNIT-LIKE PROTEIN) of the same compound?
**A.** Its fold change is 0.91.

**Q.** And the fold change (vs vehicle control, protein LMJF.07.1090 DELTA-5 FATTY ACID DESATURASE)?
**A.** Its fold change is 1.

**Q.** And the fold change (vs vehicle control, protein LMJF.09.0220 HYPOTHETICAL PROTEIN, CONSERVED)?
**A.** The fold change was 0.97.

**Q.** And the fold change (vs vehicle control, protein LMJF.11.1030 HYPOTHETICAL PROTEIN, CONSERVED)?
**A.** The fold change was 0.98.

**Q.** And the fold change (vs vehicle control, protein LMJF.14.0640 FATTY ACID ELONGASE, PUTATIVE)?
**A.** Its fold change is 0.92.

**Q.** What about the fold change (vs vehicle control, protein LMJF.14.0705 FATTY ACID ELONGASE, PUTATIVE) of the same compound?
**A.** Its fold change is 0.88.

**Q.** And the fold change (vs vehicle control, protein LMJF.14.1120 KINESIN K39, PUTATIVE)?
**A.** The fold change was 0.71.

**Q.** And the fold change (vs vehicle control, protein LMJF.16.1610 PROHIBITIN)?
**A.** The fold change was 1.16.

**Q.** What about the fold change (vs vehicle control, protein LMJF.17.0010 HYPOTHETICAL PROTEIN, CONSERVED) of the same compound?
**A.** Its fold change is 0.97.

**Q.** What about the fold change (vs vehicle control, protein LMJF.18.1130 RAS-RELATED PROTEIN RAB-5, PUTATIVE) of the same compound?
**A.** The fold change was 0.75.

**Q.** And the fold change (vs vehicle control, protein LMJF.19.1420 CYSTEINE PEPTIDASE A (CPA))?
**A.** The fold change was 0.86.

**Q.** What about the fold change (vs vehicle control, protein LMJF.21.0280 HY[…], CONSERVED) of the same compound?
**A.** Its fold change is 0.84.

**Q.** What about the fold change (vs vehicle control, protein LMJF.22.1560 40S RIBOSOMAL PROTEIN L14, PUTATIVE) of the same compound?
**A.** Its fold change is 0.78.

**Q.** And the fold change (vs vehicle control, protein LMJF.23.1220 T-COMPLEX PROTEIN 1, GAMMA SUBUNIT, PUTATIVE)?
**A.** Its fold change is 1.06.

**Q.** What about the fold change (vs vehicle control, protein LMJF.24.0370 ASPARTATE AMINOTRANSFERASE, PUTATIVE) of the same compound?
**A.** The fold change was 1.14.

**Q.** And the fold change (vs vehicle control, protein LMJF.25.1770 ENOYL-COA REDUCTASE, PUTATIVE)?
**A.** Its fold change is 1.08.

**Q.** And the fold change (vs vehicle control, protein LMJF.26.0170 60S RIBOSOMAL PROTEIN L7, PUTATIVE)?
**A.** Its fold change is 0.82.

**Q.** What about the fold change (vs vehicle control, protein LMJF.26.1550 TRI[…] ALPHA SUBUNIT, MIT[…]-LIKE PROTEIN) of the same compound?
**A.** The fold change was 1.11.

**Q.** And the fold change (vs vehicle control, protein LMJF.26.1610 PROLINE OXIDASE, MIT[…]-LIKE PROTEIN)?
**A.** The fold change was 1.02.

**Q.** What about the fold change (vs vehicle control, protein LMJF.28.1950 X-PRO, DIPEPTIDYL-PEPTIDASE,SERINE PEPTIDASE, CLAN SC, FAMILY S15, PUTATIVE) of the same compound?
**A.** The fold change was 0.94.

**Q.** What about the fold change (vs vehicle control, protein LMJF.31.1070 BIOTIN/LIPOATE PROTEIN LIGASE-LIKE PROTEIN) of the same compound?
**A.** Its fold change is 0.89.

**Q.** And the fold change (vs vehicle control, protein LMJF.32.1370 HYPOTHETICAL PROTEIN, CONSERVED)?
**A.** Its fold change is 0.94.

**Q.** And the fold change (vs vehicle control, protein LMJF.34.0490 IMPORTIN BETA-1 SUBUNIT, PUTATIVE)?
**A.** The fold change was 0.96.

**Q.** What about the fold change (vs vehicle control, protein LMJF.34.4060 UBIQUITIN HYDROLASE, PUTATIVE,CYSTEINE PEPTIDASE, CLAN CA, FAMILY C19, PUTATIVE) of the same compound?
**A.** The fold change was 0.85.

**Q.** What about the fold change (vs vehicle control, protein LMJF.36.1600 […] 1 SUBUNIT, PUTATIVE) of the same compound?
**A.** Its fold change is 0.96.

**Q.** And the fold change (vs vehicle control, protein LMJF.[…] RIBOSOMAL PROTEIN S7, PUTATIVE)?
**A.** The fold change was 1.2.
